According to ChEMBL document CHEMBL5325426, “Structure-based discovery of potent USP28 inhibitors derived from Vismodegib” (Eur J Med Chem, 2023):
Activity calls are given as the source filed them. The calls are words filed in the database; no cut-off is given here.

What was measured:
[1] = target: Ubiquitin carboxyl-terminal hydrolase 7 (Homo sapiens) (UniProt Q93009); assay: Inhibition of USP7 (208 to 560 residues) (unknown origin) expressed in Escherichia coli BL21 (DE3) using Ub-AMC as substrate at 5 uM by fluorescence based analysis
[2] = target: T1, Ubiquitin carboxyl-terminal hydrolase isozyme L3 (Homo sapiens) (UniProt P15374); assay: Inhibition of UCHL3 (unknown origin) expressed in Escherichia coli BL21 (DE3) using Ub-AMC as substrate at 5 uM by fluorescence based analysis
T1 sequence (whole entry): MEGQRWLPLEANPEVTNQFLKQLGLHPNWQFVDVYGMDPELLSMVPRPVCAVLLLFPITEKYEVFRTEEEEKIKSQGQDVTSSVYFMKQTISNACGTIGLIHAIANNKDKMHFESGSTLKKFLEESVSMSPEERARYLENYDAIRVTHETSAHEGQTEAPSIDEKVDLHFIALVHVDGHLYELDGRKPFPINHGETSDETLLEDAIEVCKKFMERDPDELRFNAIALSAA

[3] = target: T2, Ubiquitin carboxyl-terminal hydrolase 25 (Homo sapiens) (UniProt Q9UHP3); assay: Inhibition of USP25 in human HCT-116 cells assessed as downregulation of Tankyrase 1/2 protein level; format: cell-based
T2 sequence (whole entry): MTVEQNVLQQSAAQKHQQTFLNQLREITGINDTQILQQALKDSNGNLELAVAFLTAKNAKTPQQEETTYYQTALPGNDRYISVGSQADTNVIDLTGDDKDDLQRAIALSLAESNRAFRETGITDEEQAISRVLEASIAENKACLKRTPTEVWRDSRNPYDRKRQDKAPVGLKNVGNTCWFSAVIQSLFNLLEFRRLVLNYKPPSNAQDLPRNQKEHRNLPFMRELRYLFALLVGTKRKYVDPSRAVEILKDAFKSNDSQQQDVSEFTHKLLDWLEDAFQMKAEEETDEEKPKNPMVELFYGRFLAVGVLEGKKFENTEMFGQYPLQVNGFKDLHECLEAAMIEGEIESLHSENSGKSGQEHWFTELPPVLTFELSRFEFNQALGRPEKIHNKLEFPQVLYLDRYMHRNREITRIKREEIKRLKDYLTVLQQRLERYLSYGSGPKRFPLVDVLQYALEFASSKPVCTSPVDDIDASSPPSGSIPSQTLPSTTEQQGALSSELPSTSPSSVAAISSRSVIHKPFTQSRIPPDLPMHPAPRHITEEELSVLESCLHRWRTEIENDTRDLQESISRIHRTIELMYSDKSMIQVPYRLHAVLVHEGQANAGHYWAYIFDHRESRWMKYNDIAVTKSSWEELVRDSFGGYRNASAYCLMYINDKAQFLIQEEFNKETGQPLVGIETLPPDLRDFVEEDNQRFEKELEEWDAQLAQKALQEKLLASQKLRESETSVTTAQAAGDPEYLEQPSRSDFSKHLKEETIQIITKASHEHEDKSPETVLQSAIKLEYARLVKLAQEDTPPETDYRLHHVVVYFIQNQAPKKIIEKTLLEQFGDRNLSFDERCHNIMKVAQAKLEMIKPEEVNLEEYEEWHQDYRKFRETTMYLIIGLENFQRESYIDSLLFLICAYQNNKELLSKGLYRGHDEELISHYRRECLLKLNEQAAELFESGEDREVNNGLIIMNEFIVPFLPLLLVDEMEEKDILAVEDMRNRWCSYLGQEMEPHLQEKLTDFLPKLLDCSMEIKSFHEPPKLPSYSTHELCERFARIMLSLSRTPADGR

[4] = tested on: LS174T; assay: Antiproliferative activity against human LS174T cells assessed as effect on Bcl-2 protein level at 20 to 60 uM incubated for 1 day by western blotting analysis; format: functional, cell-based; conditions: dose 20-60 µM
[5] = target: T3, Ubiquitin carboxyl-terminal hydrolase 8 (Homo sapiens) (UniProt P40818); assay: Inhibition of USP8 (734 to 1110 residues) (unknown origin) expressed in Escherichia coli BL21 (DE3) using Ub-AMC as substrate at 5 uM by fluorescence based analysis
T3 sequence (whole entry): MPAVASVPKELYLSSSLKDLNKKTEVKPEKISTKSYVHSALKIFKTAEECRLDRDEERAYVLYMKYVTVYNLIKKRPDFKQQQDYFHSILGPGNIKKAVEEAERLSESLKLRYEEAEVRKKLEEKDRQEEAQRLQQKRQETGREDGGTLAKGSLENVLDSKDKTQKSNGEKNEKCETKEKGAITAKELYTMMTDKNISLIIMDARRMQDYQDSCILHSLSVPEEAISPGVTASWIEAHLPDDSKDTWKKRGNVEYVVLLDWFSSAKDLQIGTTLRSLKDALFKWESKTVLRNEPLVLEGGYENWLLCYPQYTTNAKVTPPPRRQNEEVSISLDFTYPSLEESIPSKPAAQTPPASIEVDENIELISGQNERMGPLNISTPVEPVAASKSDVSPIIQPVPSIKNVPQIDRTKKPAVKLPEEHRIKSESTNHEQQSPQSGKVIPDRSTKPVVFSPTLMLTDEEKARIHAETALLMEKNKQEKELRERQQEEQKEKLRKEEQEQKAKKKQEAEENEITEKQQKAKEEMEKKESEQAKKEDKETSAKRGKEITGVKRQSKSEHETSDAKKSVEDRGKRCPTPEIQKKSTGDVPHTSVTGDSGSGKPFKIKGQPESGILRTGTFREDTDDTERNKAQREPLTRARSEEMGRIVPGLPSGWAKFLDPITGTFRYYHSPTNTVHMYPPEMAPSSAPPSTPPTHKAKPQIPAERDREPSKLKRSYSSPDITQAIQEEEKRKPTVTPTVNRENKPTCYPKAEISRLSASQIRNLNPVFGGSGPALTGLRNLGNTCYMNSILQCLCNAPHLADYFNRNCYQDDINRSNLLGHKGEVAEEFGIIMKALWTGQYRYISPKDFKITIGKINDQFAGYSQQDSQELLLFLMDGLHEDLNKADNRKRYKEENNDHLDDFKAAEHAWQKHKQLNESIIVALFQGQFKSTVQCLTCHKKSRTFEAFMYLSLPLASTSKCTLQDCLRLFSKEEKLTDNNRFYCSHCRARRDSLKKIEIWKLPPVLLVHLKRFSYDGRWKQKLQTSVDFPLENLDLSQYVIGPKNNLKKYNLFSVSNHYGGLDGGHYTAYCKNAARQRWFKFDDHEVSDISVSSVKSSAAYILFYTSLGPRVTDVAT

[6] = tested on: LS174T; assay: Antiproliferative activity against human LS174T cells assessed as cell growth inhibition at 10 to 30 uM incubated for 3 days in presence of Regorafenib by SRB assay; format: functional, cell-based; conditions: dose 10-30 µM, time 3.0 day
[7] = target: T2, Ubiquitin carboxyl-terminal hydrolase 25 (Homo sapiens); assay: Inhibition of USP25 (unknown origin) expressed in Escherichia coli BL21 (DE3) using Ub-AMC as substrate at 5 uM by fluorescence based analysis
[8] = tested on: HCT-116; assay: Inhibition of colony formation in human HCT-116 cells at 15 uM by crystal violet staining assay; format: functional, cell-based
[9] = tested on: HCT-116; assay: Antiproliferative activity against human HCT-116 cells assessed as effect on Bcl-2 protein level at 30 to 100 uM incubated for 1 day by western blotting analysis; format: functional, cell-based; conditions: dose 30-100 µM

Chain of Ubiquitin carboxyl-terminal hydrolase 7 (Homo sapiens) (Q93009 whole entry, looked up, the tested form may be a part): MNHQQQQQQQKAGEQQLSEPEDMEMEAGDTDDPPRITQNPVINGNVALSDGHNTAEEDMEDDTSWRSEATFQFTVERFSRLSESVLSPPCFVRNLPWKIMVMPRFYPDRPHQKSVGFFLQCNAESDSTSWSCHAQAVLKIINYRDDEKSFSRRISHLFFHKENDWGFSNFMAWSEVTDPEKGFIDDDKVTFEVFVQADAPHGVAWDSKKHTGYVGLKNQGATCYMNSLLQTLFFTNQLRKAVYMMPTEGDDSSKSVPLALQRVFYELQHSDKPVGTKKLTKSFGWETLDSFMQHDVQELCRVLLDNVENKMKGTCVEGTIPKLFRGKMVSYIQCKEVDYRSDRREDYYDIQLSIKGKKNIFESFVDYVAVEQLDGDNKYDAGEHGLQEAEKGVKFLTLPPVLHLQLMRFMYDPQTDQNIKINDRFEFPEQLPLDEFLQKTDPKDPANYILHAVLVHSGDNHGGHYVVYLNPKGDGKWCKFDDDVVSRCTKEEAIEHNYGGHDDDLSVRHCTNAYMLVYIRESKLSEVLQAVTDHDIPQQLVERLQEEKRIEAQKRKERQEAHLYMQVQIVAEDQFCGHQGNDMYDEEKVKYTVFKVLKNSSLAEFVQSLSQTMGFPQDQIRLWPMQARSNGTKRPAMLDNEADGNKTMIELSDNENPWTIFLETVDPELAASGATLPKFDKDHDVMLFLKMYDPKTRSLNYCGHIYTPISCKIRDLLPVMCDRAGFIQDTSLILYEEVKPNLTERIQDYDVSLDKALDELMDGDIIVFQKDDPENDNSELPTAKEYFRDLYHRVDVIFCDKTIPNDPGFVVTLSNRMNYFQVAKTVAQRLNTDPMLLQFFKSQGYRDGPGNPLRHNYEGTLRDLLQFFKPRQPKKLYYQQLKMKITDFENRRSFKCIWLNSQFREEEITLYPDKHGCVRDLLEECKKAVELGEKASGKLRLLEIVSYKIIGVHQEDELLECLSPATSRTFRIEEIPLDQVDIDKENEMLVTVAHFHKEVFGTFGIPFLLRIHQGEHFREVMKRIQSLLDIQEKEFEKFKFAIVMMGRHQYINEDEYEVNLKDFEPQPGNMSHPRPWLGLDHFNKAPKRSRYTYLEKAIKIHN

inhibition [1] | inhibition [2] | inhibition [3] | inhibition [5] | inhibition [7] | Compound | Activity [4] | Activity [6] | inhibition [8] | Activity [9]
Active | Active | Active | Active | Active | CS(=O)(=O)c1ccc(C(=O)Nc2ccc(Cl)c(-c3ccc(C4(N)CC4)cc3)c2)c(Cl)c1 | inactive | Active |  | 
Active | Active | Active | Active | Active | CS(=O)(=O)c1ccc(C(=O)Nc2ccc(Cl)c(-c3ccc4c(c3)CCNC4)c2)c(Cl)c1 | inactive | Active | Active | inactive
Active | Active | Active | Active | Active | CS(=O)(=O)c1ccc(C(=O)Nc2ccc(Cl)c(-c3ccc4c(c3)CNC4)c2)c(Cl)c1 | inactive | Active | Active | inactive
